In brackets after ≈: the same amount, converted by molar mass.
Columns and labels:
anti-3-CQA mAb [1] = experiment: mAb-based indirect competitive chemiluminescence enzyme immunoassay (ic-CLEIA); assay type: binding, mouse; details: for CR (cross-reactivity) = IC50 3-CQA / IC50 analogue x 100%: ic-CLEIA; for IC50: 3-CQA-OVA coating 2 μg/mL, mAb 1:8000, deionized water pH 7.0
Description: To establish the optimal conditions for the ic-CLEIA, a checkerboard titration was employed. The protocols of the ic-CLEIA were performed as previously ([20]). A gradient concentration of 3-CQA-OVA (0.125, 0.5, 2.0, and 8.0 μg/mL; 100 μL/well) was diluted in PBS and added to a 96-well white microliter plate (Costar Inc., Cambridge, MA, United States), followed by incubation at 4°C overnight. After washing each well three times with PBST (PBS solution containing 0.05% Tween-20, pH 7.4), the plates were blocked with 5% skimmed milk powder (SMP) (Sigma, St Louis, MO, United States) in PBS (200 μL/well) at 37°C for 2 h. Subsequently, different concentrations of mAb (1:2000, 1:4000, 1:8000, 1:16000, 1:32000, 1:64000, and 1:128000; 100 μL/well) were added to different wells, followed by incubation at 4°C for 50 min. For ic-CLEIA standard curve, 3-CQA standard solutions in PBS (0.01, 0.025, 0.05, 0.1, 0.25, 0.5, 1, 2.5, 5, 10, 25, 50, and 100 ng/mL; 50 μL) and the diluted antibody in PBS (50 μL) were added to each well and incubated at 4°C for 50 min. After a washing step, goat anti-mouse IgG-horse radish peroxidase (HRP) (SinoBiological, Beijing, China) dissolved in PBS supplemented with 2% SMP was added at a 1:5000 dilution (100 μL/well), and the plates were incubated at 37°C for 50 min. Afterward, 100 μL of chemiluminescent substrate solution (Heliosense Biotechnology, Xiamen, China) was pipetted into each well, and the emitted photons were immediately read at 595 nm using a Tecan Infinite F200 reader (Mannedorf, Switzerland). To investigate the effects of different factors on the overall reaction system, different pH (6.5, 7.0, 7.4, and 8.0), methanol aqueous solution (5, 10, 30, and 50%; v/v), Tween-20 (0.01, 0.02, 0.04, 0.06, and 0.08%, v/v), sodium chloride solution (0.1 M, 0.2 M, and 0.4 M) were prepared and tested.
All incubation steps were performed in the dark throughout the procedure. The competitive inhibition curves for 3-CQA were plotted using GraphPad Prism 8.0 (GraphPad Inc., San Diego, CA).
To evaluate CR, the structural analogs of 3-CQA including 4-CQA, 5-CQA, 3,5-dicaffeoylquinic acid, 4,5-dicaffeoylquinic acid, 3,4-dicaffeoylquinic acid, and tea polyphenols (DESITE Biotech, Chengdu, China) were used in place of 3-CQA within the ic-CLEIA assay. The respective CR values of these analogs were determined using the following equation: […]

anti-3-CQA mAb [2] = experiment: indirect competitive ELISA (ic-ELISA); assay type: binding, mouse; details: same conditions as ic-CLEIA
Description: The protocols of ic-ELISA are similar to the ic-CLEIA, 3-CQA-OVA antigen, anti-3-CQA mAb, and goat anti-mouse IgG-HRP were successively incubated under optimized conditions. 3-CQA standard solutions in PBS (1, 2, 4, 8, 16, 32, 64, 128, 256, and 512 ng/mL; 50 μL) and the diluted antibody in PBS (50 μL) were added to each well and incubated at 4°C for 50 min. Subsequent to four washes, 3, 3′, 5, 5′-tetramethylbenzidine (TMB, 100 μL/well) solution was added and incubated at 37°C for 10 min. The reaction was then terminated by adding 2 M H2SO4 (50 μL/well), and the absorbance was measured at the wavelength of 450 nm (OD450). The competitive inhibition curve was plotted using Lg[10*C3-CQA (ng/mL)] as the abscissa and B/B0 (B0 is the OD450 value without standard, and B is the OD450 value with standard present) as the ordinate.

| SMILES | CR (cross-reactivity) = IC50 3-CQA / IC50 analogue x 100% (anti-3-CQA mAb [1]) | IC50 (anti-3-CQA mAb [1]; optimized conditions) | IC20 (lower end of linear range) (anti-3-CQA mAb [1]; optimized conditions) | IC80 (upper end of linear range) (anti-3-CQA mAb [1]; optimized conditions) | calibration / linear / detection range (IC20-IC80) (anti-3-CQA mAb [1]; optimized conditions) | limit of detection (LOD, IC10) (anti-3-CQA mAb [1]; optimized conditions) | IC50 (anti-3-CQA mAb [2]) | LOD (anti-3-CQA mAb [2]) | linear / detection range (anti-3-CQA mAb [2]) |
| --- | --- | --- | --- | --- | --- | --- | --- | --- | --- |
| O=C(/C=C/c1ccc(O)c(O)c1)OC1CC(O)(C(=O)O)CC(O)C1OC(=O)/C=C/c1ccc(O)c(O)c1 (stereo not shown) [3,4-dicaffeoylquinic acid] | 2.10% | 0.14173 µg/mL | – | – | – | – | – | – | – |
| O=C(/C=C/c1ccc(O)c(O)c1)OC1CC(O)(C(=O)O)CC(OC(=O)/C=C/c2ccc(O)c(O)c2)C1O (stereo not shown) [3,5-dicaffeoylquinic acid] | 10.71% | 0.02774 µg/mL | – | – | – | – | – | – | – |
| O=C(C=Cc1ccc(O)c(O)c1)OC1CC(O)(C(=O)O)CC(O)C1O (stereo not shown) [3-CQA, 3-caffeoylquinic acid] | 100.00% | 0.00297 µg/mL | 0.00064 µg/mL | 0.01375 µg/mL | 0.00064 to 0.01375 µg/mL | 0.00039 µg/mL | 0.03606 µg/mL (≈ 0.102 µM) | 6.71 ng/mL | 10.21 to 127.36 ng/mL |

Now from value to compound, other results behind:

| CR (cross-reactivity) = IC50 3-CQA / IC50 analogue x 100% (anti-3-CQA mAb [1]) | IC50 (anti-3-CQA mAb [1]; optimized conditions) | IC20 (lower end of linear range) (anti-3-CQA mAb [1]; optimized conditions) | IC80 (upper end of linear range) (anti-3-CQA mAb [1]; optimized conditions) | calibration / linear / detection range (IC20-IC80) (anti-3-CQA mAb [1]; optimized conditions) | limit of detection (LOD, IC10) (anti-3-CQA mAb [1]; optimized conditions) | IC50 (anti-3-CQA mAb [2]) | SMILES | LOD (anti-3-CQA mAb [2]) | linear / detection range (anti-3-CQA mAb [2]) |
| --- | --- | --- | --- | --- | --- | --- | --- | --- | --- |
| 0.31% | 0.97156 µg/mL | – | – | – | – | – | O=C(/C=C/c1ccc(O)c(O)c1)OC1CC(O)(C(=O)O)CC(O)C1OC(=O)/C=C/c1ccc(O)c(O)c1 (stereo not shown) [4,5-dicaffeoylquinic acid] | – | – |
| 0.62% | 0.48062 µg/mL | – | – | – | – | – | O=C(/C=C/c1ccc(O)c(O)c1)OC1C(O)CC(O)(C(=O)O)CC1O (stereo not shown) [4-CQA, 4-caffeoylquinic acid] | – | – |
| 1.81% | 0.16444 µg/mL | – | – | – | – | – | O=C(/C=C/c1ccc(O)c(O)c1)OC1CC(O)(C(=O)O)CC(O)C1O (stereo not shown) [5-CQA, 5-caffeoylquinic acid] | – | – |
